In test [1] the test system is HCT116 cells. Kind of test: MTT assay with or without supplemental pyruvate. It is filed as cell-based, human. As to conditions: HCT116, MTT after 24 hours. As for the experimental part:
(§1) (A) HCT116 cells were treated with 40 μM 3-BP or NEO218 in the presence or absence of 1 mM NAC, 1 mM GSH, or 50 mM methyl-pyruvate (or sodium pyruvate, which produced similar outcomes). Cell viability was determined 24 hours later by MTT assay. (B) HCT116 cells were treated with 30 or 100 μM 3-BP or NEO218. After 30 minutes, cell lysates were prepared and analyzed for GAPDH activity. (C) Lysates from non-drug-treated MDA-MB-231 cells were mixed with 3-BP or NEO218 in the presence or absence of NAC or GSH at the concentrations mentioned in A. After 1 hour of incubation, GAPDH activity was determined. GAPDH activity in the absence of drug treatment was set at 100% (corresponding to 0.06 units/min×10^6 cells).
To test this hypothesis, HCT116 cells were treated with increasing concentrations of NEO218 and 3-BP (individually) in the presence or absence of 10 mM pyruvate. Viability of cells was determined 24 hours later by MTT cell viability assay.

Test [2] has as its system HCT116, LN229, T98G, U251, MCF7, T47D, MDA-MB-231, MDA-MB-468, BTM-12, ME16C cells. In words: 24-hour MTT assay in 10 cell lines with MCT-1 levels (FIGS. 16A-16C). The test is classed as cell-based. The settings on record: Homo sapiens, read-out: IC50 (concentration of drug that kills 50% of the cell population). An excerpt: The following established human cell lines were used: (A) HCT116 colon carcinoma; (B) LN229, T98G, and U251 glioblastoma; (C) MCF7, MDA-MB-231, MDA-MB-468, BTM-12, and T47D breast carcinoma; and ME16C normal mammary gland epithelium cells (immortalized with telomerase). […] Bars with error bars represent ≥3 measurements, whereas graphs without error bars show the average of two independent measurements. The middle panels show MCT-1 protein levels for each cell line, as determined by Western blot with actin as the loading control.
(§2) Methylthiazoletetrazolium (MTT) assays were performed as described earlier.
Because it was reported that the cytotoxic effects of 3-BP in vitro depend on the presence of MCT-1, we began our study by characterizing MCT-1 expression levels along with cytotoxicity of 3-BP in the various tumor cell lines to be used in our study. We included one colon carcinoma cell line (HCT116), three glioblastoma cell lines (LN229, T98G, U251), four breast cancer cell lines (MCF7, T47D, MDA-MB-231, MDA-MB-468), one culture of primary breast cancer cells (BTM-12), and an established line of normal breast epithelial cells (ME16C). For all 10 cell lines, we established IC50 (concentration of drug that kills 50% of the cell population) by MTT assay, along with MCT-1 protein levels by Western blot analysis. As summarized in FIGS. 16A-16C, MCT-1 levels varied greatly in the different cells, and so did their IC50 values.

For test [3], the system named is HCT116 cells transfected with MCT-1 siRNA or scrambled control. Kind of test: MTT assay in HCT116 cells after siRNA knockdown of MCT-1. The test is classed as cell-based. The settings on record: Homo sapiens. As for the experimental part:
HCT116 cells were transfected with siRNA targeted at MCT-1 (circles), or with a scrambled control (diamonds). (A) Cellular sensitivity to 3-BP and NEO218 was determined by MTT assay. Dotted lines and arrow show the shift in IC50. Note pronounced shift to the right in 3-BP-treated cells (left, panel), compared to a minor shift to the left in NEO218-treated cells (right panel). (B) Knockdown of MCT-1 protein levels was confirmed by Western blot analysis with actin as the loading control. (C) MCT-1 knockdown was also confirmed at the individual cell level by immunocytochemistry. The two photos were similarly overexposed in order to emphasize the pronounced difference in MCT-1 levels.
as §2
All siRNAs were purchased from Qiagen, Valencia, Calif. To knock down MCT1 expression, we used siRNA Hs_SLC16A1_6 (target sequence: 5′-[…]-3′). As a non-silencing control, we used AllStars Negative Control siRNA, which lacks homology to any known mammalian gene. One hundred thousand cells per well of a 6-well plate were transfected with 50 nM siRNA using jetPRIME transfection reagent and buffer (Polyplus Transfection, New York, N.Y.). Medium was changed after 24 hours and cells were subjected to experiments 72 hours after transfection. 2.10. Immunoblots

For test [4], the system named is HCT116 cells. Kind of test: cells. As to conditions: Homo sapiens; for IC50: HCT-116, 24 h, read-out: half-maximal effect, MTT assay.
Protocol: (A) MTT assay was performed after 24 hours. Viability of untreated cells was set at 100% (n=3).
Methylthiazoletetrazolium (MTT) assays were performed as described earlier [38]. Briefly, cells were seeded into 96-well plates at 2.0 to 8.0×10^3 cells per well and exposed to drug treatment (or solvent alone) for 24 or 48 hours. In individual experiments, each treatment condition was set up in triplicate, and each experiment was repeated several times independently.
The target in the next test is GAPDH (Homo sapiens, UniProt P04406). Kind of test: GAPDH activity assay after 30 minutes drug treatment of living cells. The test is classed as cell-based. Details: endogenous in cells. As for the experimental part: as §1
GAPDH, sequence (P04406 whole entry): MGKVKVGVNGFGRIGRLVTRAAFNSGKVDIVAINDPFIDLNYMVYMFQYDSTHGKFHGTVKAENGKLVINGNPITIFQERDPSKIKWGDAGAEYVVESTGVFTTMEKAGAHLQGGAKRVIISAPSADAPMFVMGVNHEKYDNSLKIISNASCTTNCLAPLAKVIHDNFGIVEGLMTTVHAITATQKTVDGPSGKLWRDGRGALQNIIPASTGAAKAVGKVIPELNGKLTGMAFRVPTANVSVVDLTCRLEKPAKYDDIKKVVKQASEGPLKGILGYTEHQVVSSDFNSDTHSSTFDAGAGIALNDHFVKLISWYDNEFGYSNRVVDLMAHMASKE
Enzymatic activity of GAPDH in vitro was measured with the Colorimetric GAPDH Assay kit (ScienCell Research Laboratories, Carlsbad, Calif.). This assay is based on the oxidization of β-NADH to β-NAD in the presence of 3-phosphoglyceric acid, ATP and GAPDH. GAPDH activity is determined by assaying the rate of NADH oxidation, which is proportional to the reduction in absorbance at 340 nm over time (ΔA340 nm/min). One hundred thousand cells were lysed in 100 μL cell lysis buffer and incubated with the above components. Changes in absorbance over 10 minutes were calculated and normalized to untreated controls. Data are presented as percentage of controls. […]

Test [5] has as its system MCF7, 231, T47D, BTB-12, ME16C, 468, HCT116 cells. Kind of test: MTT cytotoxic IC50 aligned with MCT1 expression levels (FIG. 14). As to conditions: Homo sapiens.
Protocol: The expression levels of MCT1 in different tumor cell lines were determined by Western blot analysis and correlated with cytotoxic IC50 values in response of treatment of the same cells with NEO218 or 3-BP generated by MTT assay.

Entries after “also recorded” stand apart in the source; their conditions may differ. Read-outs that look alike come from different tables or passages of the source. A value given as a limit tells only on which side of the number the result lay.

As to `O=C(O)C(=O)CBr` [3-BP, 3-bromopyruvate], the “effect of supplemental pyruvate on drug-induced cell death” value in the test with HCT116 cells [1] is listed as “profound protection; also recorded: excess pyruvate was able to completely prevent cell death”. Further, the IC50 was 15 to 60 µM in test [2] (24 h, cells with high MCT-1 levels (HCT116, U251, ME16C, MDA-MB-468), 24 hours); 150 to 300 µM in test [2] (24 h, cells with lesser MCT-1 levels, 24 hours); 67 µM in test [3] (HCT-116, read-out: IC50 (MTT), HCT116, MCT-1 siRNA knockdown); 20 µM in test [3] (HCT-116, read-out: IC50 (MTT), HCT116, scrambled control siRNA); approximately 18 µM in the test with HCT116 cells [4]; less than 30 µM against GAPDH. In addition, the IC50 was less than 100 µM in test [5] (HCT-116, read-out: cytotoxic IC50) and more than 300 µM in test [5] (read-out: cytotoxic IC50). In addition, the cytotoxicity at 40 µM with HCT116 cells [4] (HCT-116, read-out: reduction of apparent viability in MTT assay) stood at 75%.

In the case of `C=C(C)[C@@H]1CC=C(COC(=O)C(=O)CBr)CC1` [NEO218, 3-bromo-2-oxo-propionic acid 4-isopropenyl-cyclohex-1-enylmethyl ester], the “effect of supplemental pyruvate on drug-induced cell death” value in the test with HCT116 cells [1] is on record as “no protection at all when pyruvate was added; also recorded: pyruvate had no effect on viability at all”. Further, the IC50 in test [2] (all 10 cell lines, irrespective of MCT-1 expression) is 15 to 25 µM; in test [3] (HCT-116, HCT116, MCT-1 siRNA knockdown, read-out: IC50 (MTT)), 15 µM; in test [3] (HCT-116, HCT116, scrambled control siRNA, read-out: IC50 (MTT)) it was 19 µM; in the test with HCT116 cells [4] it was approximately 18 µM; at GAPDH (HCT116 cells treated 30 minutes, then lysed, read-out: IC50 (GAPDH activity)) it was less than 30 µM; in test [5] (read-out: cytotoxic IC50), less than 35 µM.

The record behind these values is US10858305B2, “Perillyl alcohol-3-bromopyruvate conjugate and methods of treating cancer” (NeOnc Technologies, Inc., priority 2016, dated 2020).
